From PubChem BioAssay AID1963448 (Molecular Pharmacology Branch, DTP, NCI, 2024)
Each block holds one compound with its values, some of them ahead of it.

Tested on: 616215-338-R-J1-PDC complex spheroid growth, % test/control
Test: Anticancer human tumor 616215-338-R-J1-PDC patient-derived colon adenocarcinoma cell line growth inhibition [Asc]
Details: for IC50: curve of first compound; for viability, T/C: stronger effect = lower value
Method in brief: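 Spheroid model: tumor line + HUVEC + hMSC. Single agents and combinations; top conc. at/near clinical Cmax (10 microM if undetermined), half-log dilutions. DMSO stocks at 800-fold test concentration.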
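Note: spheroids exposed to agents for seven days before readout.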
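Throughout, for viability, T/C: 100% = DMSO vehicle control viability.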

IC50 (second compound 0.1 µM): 490 nM
IC50 (second compound 0.316 µM): 123 nM
IC50 (second compound 1 µM): 11 nM
IC50 (second compound 3.16 µM): < 9.49 nM
IC50 (second compound 10 µM): < 9.49 nM
SMILES: CCN1C(C(=O)NC23CCC(C(=O)O)(CC2)CC3)C(c2cccc(Cl)c2F)C2(C(=O)Nc3cc(Cl)ccc32)C12CCCCC2 (stereo not given) + Cc1c(S(C)(=O)=O)c(-c2cc(F)cc(N3CCN(c4ccc(NS(=O)(=O)c5ccc(NC(CCN6CCC(C(=O)OCCCP(=O)(O)O)CC6)CSc6ccccc6)c(S(=O)(=O)C(F)(F)F)c5)cc4)CC3)c2)c(-c2ccc(Cl)cc2)n1C(C)C
viability, T/C (second compound 0.1 µM, first compound 0.00949 µM): 92.5%
viability, T/C (second compound 0.1 µM, first compound 0.03 µM): 101%
viability, T/C (second compound 0.1 µM, first compound 0.0949 µM): 77.3%
viability, T/C (second compound 0.1 µM, first compound 0.3 µM): 50.7%
viability, T/C (second compound 0.1 µM, first compound 0.949 µM): 43.3%
viability, T/C (second compound 0.1 µM, first compound 3 µM): 2.3%
viability, T/C (second compound 0.316 µM, first compound 0.00949 µM): 89.4%
viability, T/C (second compound 0.316 µM, first compound 0.03 µM): 81.1%
viability, T/C (second compound 0.316 µM, first compound 0.0949 µM): 51.6%
viability, T/C (second compound 0.316 µM, first compound 0.3 µM): 34.3%
viability, T/C (second compound 0.316 µM, first compound 0.949 µM): 3.82%
viability, T/C (second compound 0.316 µM, first compound 3 µM): 0.48%
viability, T/C (second compound 1 µM, first compound 0.00949 µM): 53.2%
viability, T/C (second compound 1 µM, first compound 0.03 µM): 29.8%
viability, T/C (second compound 1 µM, first compound 0.0949 µM): 17.1%
viability, T/C (second compound 1 µM, first compound 0.3 µM): 7.2%
viability, T/C (second compound 1 µM, first compound 0.949 µM): 2.56%
viability, T/C (second compound 1 µM, first compound 3 µM): 0.18%
viability, T/C (second compound 3.16 µM, first compound 0.00949 µM): 20.3%
viability, T/C (second compound 3.16 µM, first compound 0.03 µM): 5.05%
viability, T/C (second compound 3.16 µM, first compound 0.0949 µM): 1.2%
viability, T/C (second compound 3.16 µM, first compound 0.3 µM): 0.74%
viability, T/C (second compound 3.16 µM, first compound 0.949 µM): 0.06%
viability, T/C (second compound 3.16 µM, first compound 3 µM): 0.2%
viability, T/C (second compound 10 µM, first compound 0.00949 µM): 4.94%
viability, T/C (second compound 10 µM, first compound 0.03 µM): 1.17%
viability, T/C (second compound 10 µM, first compound 0.0949 µM): 0.43%
viability, T/C (second compound 10 µM, first compound 0.3 µM): 0.5%
viability, T/C (second compound 10 µM, first compound 0.949 µM): 1.65%
viability, T/C (second compound 10 µM, first compound 3 µM): 1.41%

IC50 (second compound 0.1 µM): > 1000 nM
IC50 (second compound 0.316 µM): > 1000 nM
IC50 (second compound 1 µM): > 1000 nM
IC50 (second compound 3.16 µM): < 3.16 nM
IC50 (second compound 10 µM): < 3.16 nM
SMILES: CNC(C)C(=O)NC1CN(S(=O)(=O)c2cccc(S(=O)(=O)N3CCC4CCC(C(=O)NC(c5ccccc5)c5ccccc5)N4C(=O)C(NC(=O)C(C)NC)C3)c2)CCC2CCC(C(=O)NC(c3ccccc3)c3ccccc3)N2C1=O (stereo not given) + Cc1c(S(C)(=O)=O)c(-c2cc(F)cc(N3CCN(c4ccc(NS(=O)(=O)c5ccc(NC(CCN6CCC(C(=O)OCCCP(=O)(O)O)CC6)CSc6ccccc6)c(S(=O)(=O)C(F)(F)F)c5)cc4)CC3)c2)c(-c2ccc(Cl)cc2)n1C(C)C
viability, T/C (second compound 0.1 µM, first compound 0.00316 µM): 94%
viability, T/C (second compound 0.1 µM, first compound 0.01 µM): 99.3%
viability, T/C (second compound 0.1 µM, first compound 0.0316 µM): 92.2%
viability, T/C (second compound 0.1 µM, first compound 0.1 µM): 94.8%
viability, T/C (second compound 0.1 µM, first compound 0.316 µM): 100%
viability, T/C (second compound 0.1 µM, first compound 1 µM): 97.5%
viability, T/C (second compound 0.316 µM, first compound 0.00316 µM): 96.8%
viability, T/C (second compound 0.316 µM, first compound 0.01 µM): 97.4%
viability, T/C (second compound 0.316 µM, first compound 0.0316 µM): 92%
viability, T/C (second compound 0.316 µM, first compound 0.1 µM): 97%
viability, T/C (second compound 0.316 µM, first compound 0.316 µM): 87.9%
viability, T/C (second compound 0.316 µM, first compound 1 µM): 94.7%
viability, T/C (second compound 1 µM, first compound 0.00316 µM): 73.1%
viability, T/C (second compound 1 µM, first compound 0.01 µM): 76%
viability, T/C (second compound 1 µM, first compound 0.0316 µM): 73.2%
viability, T/C (second compound 1 µM, first compound 0.1 µM): 76%
viability, T/C (second compound 1 µM, first compound 0.316 µM): 69.6%
viability, T/C (second compound 1 µM, first compound 1 µM): 68.7%
viability, T/C (second compound 3.16 µM, first compound 0.00316 µM): 45.5%
viability, T/C (second compound 3.16 µM, first compound 0.01 µM): 40%
viability, T/C (second compound 3.16 µM, first compound 0.0316 µM): 40.1%
viability, T/C (second compound 3.16 µM, first compound 0.1 µM): 39.5%
viability, T/C (second compound 3.16 µM, first compound 0.316 µM): 36.2%
viability, T/C (second compound 3.16 µM, first compound 1 µM): 28.6%
viability, T/C (second compound 10 µM, first compound 0.00316 µM): 26.5%
viability, T/C (second compound 10 µM, first compound 0.01 µM): 23.9%
viability, T/C (second compound 10 µM, first compound 0.0316 µM): 27.9%
viability, T/C (second compound 10 µM, first compound 0.1 µM): 26.4%
viability, T/C (second compound 10 µM, first compound 0.316 µM): 22.4%
viability, T/C (second compound 10 µM, first compound 1 µM): 19.1%
